The assay has as its system L1210 leukemia ip in BDF1 mice, survival T/C. Description: NCI In Vivo Anticancer Drug Screen. Data for tumor model L1210 Leukemia (intraperitoneal) in B6D2F1 (BDF1) mice. To be noted: endpoint: mean survival time, higher = longer survival. The essentials: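 Transplantable tumor model; survival measured in treated vs vehicle control mice. Value = treated/control.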
The mark [1] stands for this setting: dose: 100.0 mg/kg/injection, schedule: Q01DX009 (ip), vehicle: saline.
Where [2] appears, read: dose: 200.0 mg/kg/injection, schedule: Q01DX009 (ip), vehicle: saline.
The mark [3] stands for this setting: dose: 100.0 mg/kg/injection, schedule: Q04DX003 (ip), vehicle: saline with Tween-80.
Setting [4] is: dose: 200.0 mg/kg/injection, schedule: Q04DX003 (ip), vehicle: saline with Tween-80.
Where [5] appears, read: dose: 400.0 mg/kg/injection, schedule: Q04DX003 (ip), vehicle: saline with Tween-80.
[6] abbreviates: dose: 50.0 mg/kg/injection, schedule: Q04DX003 (ip), vehicle: saline.
The mark [7] stands for this setting: dose: 100.0 mg/kg/injection, schedule: Q01DX009 (ip), vehicle: Klucel (hydroxypropylcellulose) (HPC).
Setting [8] is: dose: 100.0 mg/kg/injection, schedule: Q04DX003 (ip), vehicle: Klucel (hydroxypropylcellulose) (HPC).
[9] abbreviates: dose: 200.0 mg/kg/injection, schedule: Q01DX009 (ip), vehicle: Klucel (hydroxypropylcellulose) (HPC).
[10] abbreviates: dose: 200.0 mg/kg/injection, schedule: Q04DX003 (ip), vehicle: Klucel (hydroxypropylcellulose) (HPC).
Where [11] appears, read: dose: 400.0 mg/kg/injection, schedule: Q01DX009 (ip), vehicle: Klucel (hydroxypropylcellulose) (HPC).
Setting [12] is: dose: 400.0 mg/kg/injection, schedule: Q04DX003 (ip), vehicle: Klucel (hydroxypropylcellulose) (HPC).

This note sets out measurements from PubChem BioAssay AID248 (DTP/NCI, 2004).

Values joined by “and” are separate entries in the source; they are usually repeats but may differ in a detail not shown here. Identical values can stand only once. Toxic doses and inconclusive results are not listed.

Turning to `CCOC(=O)NO`, the T/C is 95 % of control (dose: 27.0 mg/kg/injection, schedule: Q03HX024 (ip), vehicle: saline); 97 % of control (dose: 40.0 mg/kg/injection, schedule: Q03HX024 (ip), vehicle: saline); 93 % of control (dose: 50.0 mg/kg/injection, schedule: Q01DX Z (ip), vehicle: carboxymethylcellulose (CMC)); 100 % of control (dose: 60.0 mg/kg/injection, schedule: Q03HX024 (ip), vehicle: saline); 100 % of control (dose: 90.0 mg/kg/injection, schedule: Q03HX024 (ip), vehicle: saline); 97 % of control and 98 % of control under setting [1]. For the same compound, the T/C was 109 % of control (dose: 100.0 mg/kg/injection, schedule: Q01DX Z (ip), vehicle: carboxymethylcellulose (CMC)); 110 % of control (dose: 120.0 mg/kg/injection, schedule: Q01DX009 (ip), vehicle: saline); 124 % of control (dose: 135.0 mg/kg/injection, schedule: Q03HX024 (ip), vehicle: saline); 119 % of control (dose: 180.0 mg/kg/injection, schedule: Q01DX009 (ip), vehicle: saline); 95 % of control and 100 % of control under setting [2]; 102 % of control and 107 % of control (dose: 400.0 mg/kg/injection, schedule: Q01DX009 (ip), vehicle: saline). Besides, the T/C (dose: 600.0 mg/kg/injection, schedule: Q01DX009 (ip), vehicle: saline) was 117 % of control.
For `CC(=O)OC1COC(NC(=O)NNc2ccccc2)C(OC(C)=O)C1OC(C)=O` (configuration not stated), the T/C is, setting by setting: under setting [1], 88 % of control; (dose: 100.0 mg/kg/injection, schedule: Q04DX003 (ip), vehicle: water) 94 % of control; under setting [2], 92 % of control; (dose: 200.0 mg/kg/injection, schedule: Q04DX003 (ip), vehicle: water) 97 % of control; (dose: 400.0 mg/kg/injection, schedule: Q04DX003 (ip), vehicle: water) 96 % of control.
Consider `OCc1ccn2c1C(O)CC2` (configuration not stated), for which the T/C reads like this: (dose: 29.0 mg/kg/injection, schedule: Q01DX009 (ip), vehicle: saline) 100 % of control; (dose: 45.0 mg/kg/injection, schedule: Q01DX009 (ip), vehicle: saline) 115 % of control; under setting [3], 108 % of control; (dose: 150.0 mg/kg/injection, schedule: Q01DX009 (ip), vehicle: saline) 111 % of control; under setting [4], 117 % of control; under setting [5], 97 % of control.
For `NC(=O)N/N=C/c1ccc[n+]([O-])c1`, the T/C (dose: 37.5 mg/kg/injection, schedule: Q04DX002 (ip), vehicle: saline with Tween-80) was 102 % of control; the T/C (dose: 75.0 mg/kg/injection, schedule: Q04DX002 (ip), vehicle: saline with Tween-80) is 108 % of control; the T/C (dose: 100.0 mg/kg/injection, schedule: Q04DX002 (ip), vehicle: saline with Tween-80) was 86 % of control; the T/C (dose: 150.0 mg/kg/injection, schedule: Q04DX002 (ip), vehicle: saline with Tween-80) is 97 % of control; the T/C (dose: 400.0 mg/kg/injection, schedule: Q04DX002 (ip), vehicle: saline with Tween-80) was 96 % of control.
In the case of `C=NNC(=O)c1ccncc1`, the T/C by setting is: under setting [3], 89 % of control; under setting [4], 94 % of control; under setting [5], 88 % of control.
On to `C[N+](C)(C)C1CS(=O)C1` (configuration not stated), for which the T/C reads like this: (dose: 12.5 mg/kg/injection, schedule: Q04DX003 (ip), vehicle: saline) 96 % of control; (dose: 25.0 mg/kg/injection, schedule: Q04DX003 (ip), vehicle: saline) 112 % of control; under setting [6], 87 % of control.
In the case of `CCc1c(CO)cnc(C)c1OP(=O)(O)O`, the T/C by setting is: (dose: 100.0 mg/kg/injection, schedule: Q01DX001 (ip), vehicle: carboxymethylcellulose (CMC)) 100 % of control; (dose: 200.0 mg/kg/injection, schedule: Q01DX001 (ip), vehicle: carboxymethylcellulose (CMC)) 96 % of control; (dose: 400.0 mg/kg/injection, schedule: Q01DX001 (ip), vehicle: carboxymethylcellulose (CMC)) 102 % of control.
For `Cc1cc2oc(/C=C(\C#N)c3ccc([N+](=O)[O-])cc3)c(C)c2cc1C`, the T/C under setting [7] was 88 % of control; the T/C under setting [8] is 98 % of control; the T/C under setting [9] is 103 % of control; the T/C under setting [10] was 95 % of control; the T/C under setting [11] is 99 % of control; the T/C under setting [12] is 98 % of control.
Turning to `CC(=O)CC(=O)N(C(=O)CC(C)=O)c1ccccc1C`, the T/C is, setting by setting: (dose: 50.0 mg/kg/injection, schedule: Q01DX009 (ip), vehicle: saline with Tween-80) 105 % of control; (dose: 100.0 mg/kg/injection, schedule: Q01DX009 (ip), vehicle: saline with Tween-80) 105 % of control; (dose: 200.0 mg/kg/injection, schedule: Q01DX009 (ip), vehicle: saline with Tween-80) 94 % of control.
On to `CN(N=O)C(=O)NC1C=CCCC1` (configuration not stated), for which the T/C (dose: 12.5 mg/kg/injection, schedule: Q01DX001 (ip), vehicle: other) was 104 % of control; the T/C (dose: 25.0 mg/kg/injection, schedule: Q01DX001 (ip), vehicle: other) is 95 % of control; the T/C (dose: 50.0 mg/kg/injection, schedule: Q01DX001 (ip), vehicle: other) was 97 % of control; the T/C (dose: 100.0 mg/kg/injection, schedule: Q01DX001 (ip), vehicle: other) was 96 % of control; the T/C (dose: 200.0 mg/kg/injection, schedule: Q01DX001 (ip), vehicle: other) was 104 % of control.
For the compound `O=C1c2ccccc2C(=O)N1CN1CCC(CCCC2CCN(CN3C(=O)c4ccccc4C3=O)CC2)CC1`, under setting [3], the T/C is 92 % of control.
With `Cc1ccc(NC(=O)c2cccc(C(=O)Nc3ccc(C)c(Cl)c3)c2)cc1Cl`, the T/C reads like this: under setting [7], 91 % of control; under setting [8], 95 % of control; under setting [9], 97 % of control; under setting [10], 96 % of control; under setting [11], 92 % of control; under setting [12], 106 % of control.
As for `Cc1cc(C)c(NC(=O)NCCCl)cc1C`, the T/C runs as follows: under setting [8], 104 % of control; under setting [10], 89 % of control; under setting [12], 93 % of control.
As for `O=[N+]([O-])c1cc2c3ccccc3ccc2c2ccccc12`, the T/C is 96 % of control under setting [7]; 95 % of control under setting [8]; 94 % of control under setting [9]; 97 % of control under setting [10]; 100 % of control under setting [11]; 94 % of control under setting [12].
As for `NC1CC[N-]CC1.NC1CC[N-]CC1.[Cl][Pt+2][Cl]`, the T/C is 108 % of control under setting [6]; 94 % of control under setting [1]; 102 % of control (dose: 100.0 mg/kg/injection, schedule: Q04DX003 (ip), vehicle: saline); 100 % of control under setting [2]; 108 % of control (dose: 200.0 mg/kg/injection, schedule: Q04DX003 (ip), vehicle: saline); 100 % of control (dose: 400.0 mg/kg/injection, schedule: Q04DX003 (ip), vehicle: saline).
For the compound `c1ccc(B2Nc3ccccc3-c3ccccc32)cc1`, the T/C runs as follows: under setting [3], 98 % of control; under setting [4], 96 % of control; under setting [5], 98 % of control.
Take `CN(C)P(=O)(N(C)C)N1CC1`: the T/C (dose: 0.75 mg/kg/injection, schedule: Q01DX009 (ip), vehicle: saline) was 98 % of control; the T/C (dose: 1.5 mg/kg/injection, schedule: Q01DX009 (ip), vehicle: saline) was 103 % of control; the T/C (dose: 3.7 mg/kg/injection, schedule: Q01DX009 (ip), vehicle: saline) is 101 % of control; the T/C (dose: 3.75 mg/kg/injection, schedule: Q01DX009 (ip), vehicle: saline) is 98 % of control; the T/C (dose: 7.5 mg/kg/injection, schedule: Q01DX009 (ip), vehicle: saline) was 113 % of control and 115 % of control; the T/C (dose: 15.0 mg/kg/injection, schedule: Q01DX009 (ip), vehicle: saline) is 120 % of control. In addition, the T/C (dose: 30.0 mg/kg/injection, schedule: Q01DX001 (ip), vehicle: saline) was 111 % of control and the T/C (dose: 30.0 mg/kg/injection, schedule: Q01DX009 (ip), vehicle: saline) is 173 % of control.
With `N=C(N)c1ccc(OCCCCOc2ccc(N)cc2Cl)cc1`, the T/C (dose: 50.0 mg/kg/injection, schedule: Q01DX009 (ip), vehicle: Klucel (hydroxypropylcellulose) (HPC)) was 111 % of control and the T/C under setting [7] was 97 % of control.
